One test concerns the target T1, NK-1 (Homo sapiens, UniProt P25103).
T1 construct: endogenous in cells; host or cells: U373 cells (crude membranes)
In words: NK1 radioligand binding assay ([125I]Substance P, U373 cell membranes). Conditions: 1 hour at room temperature. As to the method:
(§1) NK-1 Binding assay. Crude membrane suspensions were prepared for the NK1 and SERT radioligand binding assays from U373 cells or recombinant HEK-293 cells expressing hSERT, respectively. Cells were harvested from T-175 flasks as follows. The medium is removed from the flasks and the cells rinsed with HBSS without Ca and without Mg. The cells are then incubated for 5-10 minutes in 10 mM Tris-Cl, pH 7.5, 5 mM EDTA before the cells are lifted with a combination of pipetting and scraping, as needed. To prepare membranes, the cell suspension is collected into centrifuge bottles and homogenized for 30 seconds with a Polytron homogenizer. The suspension is centrifuged for 30 min @ 32,000×g, 4° C., then the supernatant is decanted and the pellet resuspended and homogenized in 50 mM Tris-Cl, pH 7.5, 1 mM EDTA for 10 seconds. The suspension is then centrifuged again for 30 min @ 32,000×g, 4° C. The supernatant is decanted and the pellet resuspended in 50 mM Tris-Cl, pH 7.5, 1 mM EDTA and briefly homogenized. A Bradford assay (Bio-rad) is performed and the membrane preparation diluted to 2 mg/ml with 50 mM Tris-Cl, pH 7.5, 1 mM EDTA. Aliquots are prepared, and then frozen and stored at −80° C.
NK1 radioligand binding assay. Compounds are dissolved in 100% DMSO at a concentration 100× the desired highest assay concentration, serially diluted 1:3 in 100% DMSO, and 0.6 ul/well of each solution is dispensed to a Nunc polypropylene, round bottom, 384 well plate. 100% inhibition is defined with 0.6 ul/well of 1 mM L-733,060 (Sigma L-137) dissolved in DMSO. 30 ul/well of a 2×U373 membrane preparation (267 ug/ml in 100 mM Tris-Cl, pH 7.5, 6 mM MgCl2, 0.2% (v/v) Sigma mammalian protease inhibitor cocktail (Sigma P-8340), and 4 ug/ml chymostatin, Sigma C-7268) and 30 ul/well of a 2×radioligand solution (400 pM [^125I]Substance P (Perkin Elmer NEX-190) in 1% (w/v) BSA (Sigma A-2153), 0.1 mg/ml bacitracin, Sigma B-0125) are added to the well and the reaction incubated for 1 hour at room temperature. The contents of the assay plate are then transferred to a Millipore MultiscreenHTS GF/B filter plate which has been pretreated with 0.5% PEI for at least one hour. The plate is vacuum filtered and washed with 7 washes of 100 ul/well of 20 mM Tris-Cl, pH 7.5, 0.5% (w/v) BSA chilled to 4° C. The filtration and washing is completed in less than 90 s. The plates are air-dried overnight, 12 ul/well of MicroScint scintillation fluid added, and the plates counted in a Trilux.
(§2) Data analysis. The raw data are normalized to percent inhibition using control wells defining 0% (DMSO only) and 100% (selective inhibitor) inhibition which are run on each plate. Each plate is run in triplicate, and the concentration response curve thus generated is fit using the four-parameter dose response equation, Y=Bottom+(Top-Bottom)/(1+10^((LogIC50-X)*HillSlope)) in order to determine the IC50 value for each compound. The radioligand concentration chosen for each assay corresponds to the Kd concentration determined through saturation binding analysis for each assay.

The target in another test is T2, hSERT (Homo sapiens, UniProt P31645).
T2 construct: expressed in transfected cells; host or cells: HEK-293 cells (crude membranes)
T2 sequence (P31645 whole entry): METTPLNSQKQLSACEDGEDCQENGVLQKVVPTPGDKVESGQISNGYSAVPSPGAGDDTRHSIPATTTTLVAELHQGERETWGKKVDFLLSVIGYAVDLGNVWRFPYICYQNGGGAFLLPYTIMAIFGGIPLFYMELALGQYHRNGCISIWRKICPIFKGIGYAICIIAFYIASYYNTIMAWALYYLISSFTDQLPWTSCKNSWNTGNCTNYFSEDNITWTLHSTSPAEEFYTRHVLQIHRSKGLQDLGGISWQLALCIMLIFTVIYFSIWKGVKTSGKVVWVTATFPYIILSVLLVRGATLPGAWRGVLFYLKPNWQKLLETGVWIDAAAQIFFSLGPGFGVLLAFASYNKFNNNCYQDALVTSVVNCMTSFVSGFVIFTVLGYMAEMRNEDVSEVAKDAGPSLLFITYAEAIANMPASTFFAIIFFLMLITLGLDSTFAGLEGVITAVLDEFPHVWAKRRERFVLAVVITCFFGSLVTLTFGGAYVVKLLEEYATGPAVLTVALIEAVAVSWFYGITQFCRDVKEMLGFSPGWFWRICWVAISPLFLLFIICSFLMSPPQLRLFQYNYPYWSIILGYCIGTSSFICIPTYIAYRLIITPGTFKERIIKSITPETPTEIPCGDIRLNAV
The test can be described thus: SERT radioligand binding assay ([125I]RTI-55, HEK-hSERT membranes). Conditions: [125I]RTI-55, 1 hour at room temperature. As to the method:
as §1
SERT radioligand binding assay. Compounds are dissolved in 100% DMSO at a concentration 100× the desired highest assay concentration, serially diluted 1:3 in 100% DMSO, and 0.4 ul/well of each solution is dispensed to a Nunc polypropylene, round bottom, 384 well plate. 100% inhibition is defined with 0.4 ul/well of 1 mM fluoxetine (Sigma F-132) dissolved in DMSO. 20 ul/well of a 2×HEK-hSERT membrane preparation (15 ug/ml in 50 mM Tris-Cl, pH 7.5, 120 mM NaCl, 5 mM KCl) and 20 ul/well of a 2×radioligand solution (520 pM [^125I]RTI-55 (Perkin-Elmer NEX-272) in 50 mM Tris-Cl, pH 7.5, 120 mM NaCl, 5 mM KCl) are added to each well and the reaction incubated for 1 hour at room temperature. The contents of the assay plate are then transferred to a Millipore MultiscreenHTS GF/B filter plate which has been pretreated with 0.5% PEI for at least one hour. The plate is vacuum filtered and washed with 7 washes of 100 ul/well of 50 mM Tris-Cl, pH 7.5, 120 mM NaCl, 5 mM KCl chilled to 4° C. The filtration and washing is completed in less than 90 s. The plates are air-dried overnight, 12 ul/well of MicroScint scintillation fluid added, and the plates counted in a Trilux.
as §2

The record followed here is patent US7632861B2, “Substituted heterocyclic ethers and their use in CNS disorders” (Bristol-Myers Squibb Company, priority 2007, dated 2009).

T1 sequence (P25103 whole entry): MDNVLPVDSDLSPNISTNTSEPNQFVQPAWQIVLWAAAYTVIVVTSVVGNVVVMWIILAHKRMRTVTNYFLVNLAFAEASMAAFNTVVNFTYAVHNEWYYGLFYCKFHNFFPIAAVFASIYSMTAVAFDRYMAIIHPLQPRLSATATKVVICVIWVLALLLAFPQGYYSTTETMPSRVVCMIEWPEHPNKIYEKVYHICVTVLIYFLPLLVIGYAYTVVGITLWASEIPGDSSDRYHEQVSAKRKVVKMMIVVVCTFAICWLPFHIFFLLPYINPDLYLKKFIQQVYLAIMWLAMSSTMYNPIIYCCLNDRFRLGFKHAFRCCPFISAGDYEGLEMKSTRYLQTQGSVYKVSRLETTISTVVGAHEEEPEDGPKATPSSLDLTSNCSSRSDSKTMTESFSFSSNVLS

For `NCCC1(COCc2cc(-c3ccncc3)cc(C(F)(F)F)c2)OCc2ccccc21` (stereo not drawn) [Example 3], the values for the IC50 at NK-1 and at hSERT were 0.01 to 100 nM and 100 to 300 nM, respectively.

On to `CC(OCC1(CCN(C)C)OCc2ccccc21)c1cc(C(F)(F)F)cc(C(F)(F)F)c1` (stereo not drawn) [Example 29], for which the values for the IC50 at NK-1 and at hSERT were 0.01 to 100 nM and greater than 300 nM, respectively.

In the case of `CN(C)CCC1(COCc2cc(Br)cc(C(F)(F)F)c2)OCc2cc(C#N)ccc21` (stereo not drawn) [Example 22], the half-inhibitory concentration (IC50) on NK-1 was 0.01 to 100 nM; on hSERT, greater than 300 nM.

For `CN(C)CCC1(COCc2cc(-c3ccncc3)cc(C(F)(F)F)c2)OCc2ccccc21` (stereo not drawn) [Example 19], the concentration for half-maximal inhibition (IC50) on NK-1 and on hSERT was 0.01 to 100 nM throughout.

With `NCCC1(COCc2cc(-c3ccccc3Cl)cc(C(F)(F)F)c2)OCc2ccccc21` (stereo not drawn) [Example 14], the half-maximal inhibitory concentration (IC50) on NK-1 is 100 to 300 nM; at hSERT, greater than 300 nM.

As for `N#Cc1cccc(-c2cc(COCC3(CCN)OCc4ccccc43)cc(C(F)(F)F)c2)c1` (stereo not drawn) [Example 4], the half-inhibitory concentration (IC50) on NK-1 and at hSERT was 100 to 300 nM in each case.

Consider `CN(C)CCC1(COCc2cc(Cl)cc(Br)c2)OCc2ccccc21` (stereo not drawn) [Example 31], for which the IC50 at NK-1 was in the range of 100 to 300 nM; at hSERT, 0.01 to 100 nM.

For the molecule `NCCC1(COCc2cc(Br)cc(C(F)(F)F)c2)OCc2ccccc21` (stereo not drawn) [Example 1, 2-(1-((3-bromo-5-(trifluoromethyl)benzyloxy)methyl)-1,3-dihydroisobenzofuran-1-yl)ethanamine], the half-maximal inhibitory concentration (IC50) on NK-1 and on hSERT was 0.01 to 100 nM throughout.

Consider `N#Cc1ccc2c(c1)COC2(CCN)COCc1cc(Br)cc(C(F)(F)F)c1` (stereo not drawn) [Example 24], for which the IC50 at NK-1 and at hSERT was 0.01 to 100 nM each time.

As a reminder, the IC50 is the concentration that inhibits the measured activity by half.
